Source: ChEMBL document CHEMBL3112480, “γ-Alkylidene-γ-lactones and isobutylpyrrol-2(5H)-ones analogues to rubrolides as inhibitors of biofilm formation by gram-positive and gram-negative bacteria” (Bioorg Med Chem Lett, 2014)
Converted amounts (≈) assume the structure as drawn.

Legend:
Staphylococcus aureus [1] = experiment: Antibacterial activity against Staphylococcus aureus ATCC 25923 assessed as effect on planktonic growth at 5.5 ug/ml after 20 hrs relative to control; format: functional
Streptococcus mutans [2] = experiment: Antibacterial activity against Streptococcus mutans ATCC 25175 assessed as effect on planktonic growth at 1.37 ug/ml after 20 hrs relative to control; format: functional
Streptococcus mutans [3] = experiment: Antibacterial activity against Streptococcus mutans ATCC 25175 assessed as effect on planktonic growth at 10.9 ug/ml after 20 hrs relative to control; format: functional
Pseudomonas aeruginosa [4] = experiment: Antibacterial activity against Pseudomonas aeruginosa ATCC 27853 assessed as effect on planktonic growth at 0.34 ug/ml after 20 hrs relative to control; format: functional
[5] = system: Staphylococcus epidermidis; experiment: Antibacterial activity against Staphylococcus epidermidis ATCC 35547 assessed as effect on planktonic growth at 0.68 ug/ml after 20 hrs relative to control; format: functional
Staphylococcus aureus [6] = experiment: Antibacterial activity against Staphylococcus aureus ATCC 25923 assessed as effect on planktonic growth at 43.8 ug/ml after 20 hrs relative to control; format: functional
[7] = system: Staphylococcus epidermidis; experiment: Antibacterial activity against Staphylococcus epidermidis ATCC 35547 assessed as effect on planktonic growth at 0.17 ug/ml after 20 hrs relative to control; format: functional
Streptococcus mutans [8] = experiment: Antibacterial activity against Streptococcus mutans ATCC 25175 assessed as effect on planktonic growth at 43.8 ug/ml after 20 hrs relative to control; format: functional
Staphylococcus aureus [9] = experiment: Antibacterial activity against Staphylococcus aureus ATCC 25923 assessed as effect on planktonic growth at 2.73 ug/ml after 20 hrs relative to control; format: functional
[10] = system: Staphylococcus epidermidis; experiment: Antibacterial activity against Staphylococcus epidermidis ATCC 35547 assessed as effect on planktonic growth at 5.5 ug/ml after 20 hrs relative to control; format: functional
Staphylococcus aureus [11] = experiment: Antibacterial activity against Staphylococcus aureus ATCC 25923 assessed as effect on planktonic growth at 0.34 ug/ml after 20 hrs relative to control; format: functional
Staphylococcus aureus [12] = experiment: Antibacterial activity against Staphylococcus aureus ATCC 25923 assessed as effect on planktonic growth at 21.9 ug/ml after 20 hrs relative to control; format: functional
[13] = system: Staphylococcus epidermidis; experiment: Antibacterial activity against Staphylococcus epidermidis ATCC 35547 assessed as inhibition of biofilm formation after 20 hrs by crystal-violet staining method; format: functional, organism-based; settings: for IC50: ATCC 35547, 20 h
Pseudomonas aeruginosa [14] = experiment: Antibacterial activity against Pseudomonas aeruginosa ATCC 27853 assessed as effect on planktonic growth at 5.5 ug/ml after 20 hrs relative to control; format: functional
Pseudomonas aeruginosa [15] = experiment: Antibacterial activity against Pseudomonas aeruginosa ATCC 27853 assessed as effect on planktonic growth at 2.73 ug/ml after 20 hrs relative to control; format: functional
[16] = system: Staphylococcus epidermidis; experiment: Antibacterial activity against Staphylococcus epidermidis ATCC 35547 assessed as effect on planktonic growth at 43.8 ug/ml after 20 hrs relative to control; format: functional
Pseudomonas aeruginosa [17] = experiment: Antibacterial activity against Pseudomonas aeruginosa ATCC 27853 assessed as inhibition of biofilm formation after 20 hrs by crystal-violet staining method; format: functional, organism-based; settings: for IC50: ATCC 27853, 20 h
Pseudomonas aeruginosa [18] = experiment: Antibacterial activity against Pseudomonas aeruginosa ATCC 27853 assessed as effect on planktonic growth at 21.9 ug/ml after 20 hrs relative to control; format: functional
Streptococcus mutans [19] = experiment: Antibacterial activity against Streptococcus mutans ATCC 25175 assessed as effect on planktonic growth at 0.34 ug/ml after 20 hrs relative to control; format: functional
Staphylococcus aureus [20] = experiment: Antibacterial activity against Staphylococcus aureus ATCC 25923 assessed as effect on planktonic growth at 87.5 ug/ml after 20 hrs relative to control; format: functional
Staphylococcus aureus [21] = experiment: Antibacterial activity against Staphylococcus aureus ATCC 25923 assessed as effect on planktonic growth at 0.17 ug/ml after 20 hrs relative to control; format: functional
Staphylococcus aureus [22] = experiment: Antibacterial activity against Staphylococcus aureus ATCC 25923 assessed as effect on planktonic growth at 10.9 ug/ml after 20 hrs relative to control; format: functional
Streptococcus mutans [23] = experiment: Antibacterial activity against Streptococcus mutans ATCC 25175 assessed as effect on planktonic growth at 2.73 ug/ml after 20 hrs relative to control; format: functional
Pseudomonas aeruginosa [24] = experiment: Antibacterial activity against Pseudomonas aeruginosa ATCC 27853 assessed as effect on planktonic growth at 10.9 ug/ml after 20 hrs relative to control; format: functional
Streptococcus mutans [25] = experiment: Antibacterial activity against Streptococcus mutans ATCC 25175 assessed as effect on planktonic growth at 0.17 ug/ml after 20 hrs relative to control; format: functional
Streptococcus mutans [26] = experiment: Antibacterial activity against Streptococcus mutans ATCC 25175 assessed as effect on planktonic growth at 0.68 ug/ml after 20 hrs relative to control; format: functional
Pseudomonas aeruginosa [27] = experiment: Antibacterial activity against Pseudomonas aeruginosa ATCC 27853 assessed as effect on planktonic growth at 43.8 ug/ml after 20 hrs relative to control; format: functional
[28] = system: Staphylococcus epidermidis; experiment: Antibacterial activity against Staphylococcus epidermidis ATCC 35547 assessed as effect on planktonic growth at 2.73 ug/ml after 20 hrs relative to control; format: functional
Streptococcus mutans [29] = experiment: Antibacterial activity against Streptococcus mutans ATCC 25175 assessed as effect on planktonic growth at 5.5 ug/ml after 20 hrs relative to control; format: functional
Streptococcus mutans [30] = experiment: Antibacterial activity against Streptococcus mutans ATCC 25175 assessed as effect on planktonic growth at 87.5 ug/ml after 20 hrs relative to control; format: functional
[31] = system: Staphylococcus epidermidis; experiment: Antibacterial activity against Staphylococcus epidermidis ATCC 35547 assessed as effect on planktonic growth at 21.9 ug/ml after 20 hrs relative to control; format: functional
[32] = system: Staphylococcus epidermidis; experiment: Antibacterial activity against Staphylococcus epidermidis ATCC 35547 assessed as effect on planktonic growth at 1.37 ug/ml after 20 hrs relative to control; format: functional
[33] = system: Staphylococcus epidermidis; experiment: Antibacterial activity against Staphylococcus epidermidis ATCC 35547 assessed as effect on planktonic growth at 0.34 ug/ml after 20 hrs relative to control; format: functional
Staphylococcus aureus [34] = experiment: Antibacterial activity against Staphylococcus aureus ATCC 25923 assessed as effect on planktonic growth at 1.37 ug/ml after 20 hrs relative to control; format: functional
Pseudomonas aeruginosa [35] = experiment: Antibacterial activity against Pseudomonas aeruginosa ATCC 27853 assessed as effect on planktonic growth at 0.17 ug/ml after 20 hrs relative to control; format: functional
[36] = system: Staphylococcus epidermidis; experiment: Antibacterial activity against Staphylococcus epidermidis ATCC 35547 assessed as effect on planktonic growth at 87.5 ug/ml after 20 hrs relative to control; format: functional
Staphylococcus aureus [37] = experiment: Antibacterial activity against Staphylococcus aureus ATCC 25923 assessed as effect on planktonic growth at 0.68 ug/ml after 20 hrs relative to control; format: functional
[38] = system: Staphylococcus epidermidis; experiment: Antibacterial activity against Staphylococcus epidermidis ATCC 35547 assessed as effect on planktonic growth at 10.9 ug/ml after 20 hrs relative to control; format: functional
Pseudomonas aeruginosa [39] = experiment: Antibacterial activity against Pseudomonas aeruginosa ATCC 27853 assessed as effect on planktonic growth at 1.37 ug/ml after 20 hrs relative to control; format: functional
Pseudomonas aeruginosa [40] = experiment: Antibacterial activity against Pseudomonas aeruginosa ATCC 27853 assessed as effect on planktonic growth at 87.5 ug/ml after 20 hrs relative to control; format: functional
Pseudomonas aeruginosa [41] = experiment: Antibacterial activity against Pseudomonas aeruginosa ATCC 27853 assessed as effect on planktonic growth at 0.68 ug/ml after 20 hrs relative to control; format: functional
Streptococcus mutans [42] = experiment: Antibacterial activity against Streptococcus mutans ATCC 25175 assessed as effect on planktonic growth at 21.9 ug/ml after 20 hrs relative to control; format: functional

## COc1ccc(Br)cc1C1=C(Br)C(=O)N(CC(C)C)/C1=C\c1ccc(Br)cc1
Staphylococcus aureus [1]
  Activity: -2.1%
Streptococcus mutans [2]
  Activity: 8.3%
Streptococcus mutans [3]
  Activity: -5%
Pseudomonas aeruginosa [4]
  Activity: 0.3%
[5]
  Activity: 10%
Staphylococcus aureus [6]
  Activity: 5.5%
[7]
  Activity: 3.3%
Streptococcus mutans [8]
  Activity: -31.4%
Staphylococcus aureus [9]
  Activity: -2.4%
[10]
  Activity: 0.9%
Staphylococcus aureus [11]
  Activity: 0.3%
Staphylococcus aureus [12]
  Activity: 0.8%
[13]
  inhibition: Dose-dependent effect
  IC50: 67.5 µg/mL (≈ 118 µM)
Pseudomonas aeruginosa [14]
  Activity: 0.6%
Pseudomonas aeruginosa [15]
  Activity: 0.8%
[16]
  Activity: 78.7%
Pseudomonas aeruginosa [17]
  inhibition: Dose-dependent effect
  IC50: > 87.5 µg/mL
Pseudomonas aeruginosa [18]
  Activity: -1.3%
Streptococcus mutans [19]
  Activity: -0.3%
Staphylococcus aureus [20]
  Activity: 6%
Staphylococcus aureus [21]
  Activity: -3.9%
Staphylococcus aureus [22]
  Activity: 1%
Streptococcus mutans [23]
  Activity: -5.3%
Pseudomonas aeruginosa [24]
  Activity: -2.6%
Streptococcus mutans [25]
  Activity: 6%
Streptococcus mutans [26]
  Activity: 5.8%
Pseudomonas aeruginosa [27]
  Activity: 3.4%
[28]
  Activity: 11.2%
Streptococcus mutans [29]
  Activity: -3.3%
Streptococcus mutans [30]
  Activity: -15.8%
[31]
  Activity: 32.6%
[32]
  Activity: 5.7%
[33]
  Activity: 14.1%
Staphylococcus aureus [34]
  Activity: -0.5%
Pseudomonas aeruginosa [35]
  Activity: 4.1%
[36]
  Activity: 88.4%
Staphylococcus aureus [37]
  Activity: -0.5%
[38]
  Activity: 12.3%
Pseudomonas aeruginosa [39]
  Activity: 1%
Pseudomonas aeruginosa [40]
  Activity: 12.6%
Pseudomonas aeruginosa [41]
  Activity: -0.2%
Streptococcus mutans [42]
  Activity: -14.6%

## COc1ccc(Cl)cc1C1=C(Br)C(=O)O/C1=C\c1ccccc1Br
Staphylococcus aureus [1]
  Activity: -16.7%
Streptococcus mutans [2]
  Activity: 4.5%
Streptococcus mutans [3]
  Activity: 8.2%
Pseudomonas aeruginosa [4]
  Activity: -5.3%
[5]
  Activity: 11.1%
Staphylococcus aureus [6]
  Activity: -2.9%
[7]
  Activity: 9.5%
Streptococcus mutans [8]
  Activity: 26.9%
Staphylococcus aureus [9]
  Activity: -14.4%
[10]
  Activity: 3.9%
Staphylococcus aureus [11]
  Activity: -10%
Staphylococcus aureus [12]
  Activity: -8.3%
[13]
  inhibition: Dose-dependent effect
  IC50: 48 µg/mL (≈ 102 µM)
Pseudomonas aeruginosa [14]
  Activity: -8.1%
Pseudomonas aeruginosa [15]
  Activity: -7.7%
[16]
  Activity: 42.5%
Pseudomonas aeruginosa [17]
  inhibition: Dose-dependent effect
  IC50: 3.9 µg/mL (≈ 8.29 µM)
Pseudomonas aeruginosa [18]
  Activity: -13.4%
Streptococcus mutans [19]
  Activity: 5.6%
Staphylococcus aureus [20]
  Activity: 14.6%
Staphylococcus aureus [21]
  Activity: -7.9%
Staphylococcus aureus [22]
  Activity: -16.9%
Streptococcus mutans [23]
  Activity: 4.1%
Pseudomonas aeruginosa [24]
  Activity: -5.2%
Streptococcus mutans [25]
  Activity: 19%
Streptococcus mutans [26]
  Activity: 5.6%
Pseudomonas aeruginosa [27]
  Activity: -9.1%
[28]
  Activity: 2.9%
Streptococcus mutans [29]
  Activity: 8.6%
Streptococcus mutans [30]
  Activity: 57.5%
[31]
  Activity: 27.3%
[32]
  Activity: 2.5%
[33]
  Activity: 51.8%
Staphylococcus aureus [34]
  Activity: -14%
Pseudomonas aeruginosa [35]
  Activity: -3.8%
[36]
  Activity: 74.6%
Staphylococcus aureus [37]
  Activity: -10.6%
[38]
  Activity: 12.1%
Pseudomonas aeruginosa [39]
  Activity: -7%
Pseudomonas aeruginosa [40]
  Activity: -8.2%
Pseudomonas aeruginosa [41]
  Activity: -5.1%
Streptococcus mutans [42]
  Activity: 22.8%

## COc1ccc(Br)cc1C1=C(Br)C(=O)N(CC(C)C)C1(O)Cc1ccc(Br)cc1 (stereo unspecified)
Staphylococcus aureus [1]
  Activity: -9%
Streptococcus mutans [2]
  Activity: 4%
Streptococcus mutans [3]
  Activity: -8%
Pseudomonas aeruginosa [4]
  Activity: -5.7%
[5]
  Activity: -5.4%
Staphylococcus aureus [6]
  Activity: -13.7%
[7]
  Activity: 2.1%
Streptococcus mutans [8]
  Activity: -17.9%
Staphylococcus aureus [9]
  Activity: -17.9%
[10]
  Activity: -2.4%
Staphylococcus aureus [11]
  Activity: -3.4%
Staphylococcus aureus [12]
  Activity: -15.6%
[13]
  inhibition: Dose-dependent effect
  IC50: 13.3 µg/mL (≈ 22.6 µM)
Pseudomonas aeruginosa [14]
  Activity: 58.3%
Pseudomonas aeruginosa [15]
  Activity: 0.8%
[16]
  Activity: 43.6%
Pseudomonas aeruginosa [17]
  inhibition: Dose-dependent effect
Pseudomonas aeruginosa [18]
  Activity: 58.3%
Streptococcus mutans [19]
  Activity: -7%
Staphylococcus aureus [20]
  Activity: 7.4%
Staphylococcus aureus [21]
  Activity: 1.1%
Staphylococcus aureus [22]
  Activity: -11.3%
Streptococcus mutans [23]
  Activity: -6%
Pseudomonas aeruginosa [24]
  Activity: 64.1%
Streptococcus mutans [25]
  Activity: -13.2%
Streptococcus mutans [26]
  Activity: -8%
Pseudomonas aeruginosa [27]
  Activity: 63.9%
[28]
  Activity: 4.8%
Streptococcus mutans [29]
  Activity: -3%
Streptococcus mutans [30]
  Activity: 0.2%
[31]
  Activity: 55.8%
[32]
  Activity: 8%
[33]
  Activity: 4.3%
Staphylococcus aureus [34]
  Activity: -14.8%
Pseudomonas aeruginosa [35]
  Activity: -4%
[36]
  Activity: 29.8%
Staphylococcus aureus [37]
  Activity: -10.8%
[38]
  Activity: 11.2%
Pseudomonas aeruginosa [39]
  Activity: -4.5%
Pseudomonas aeruginosa [40]
  Activity: 39.4%
Pseudomonas aeruginosa [41]
  Activity: -7%
Streptococcus mutans [42]
  Activity: -13.7%
